From ChEMBL document CHEMBL4837269, “Identification of 6-Hydroxypyrimidin-4(1H)-one-3-carboxamides as Potent and Orally Active APJ Receptor Agonists” (ACS Med Chem Lett, 2021)

Assays:
Apelin receptor [1] = biological target: T1, Apelin receptor (Homo sapiens, UniProt P35414); test: Agonist activity at human APJ receptor expressed in HEK293T cells assessed as compound stimulated inhibition of forskolin stimulated cAMP production incubated for 30 mins by HTRF assay; assay type: functional, cell-based
T1 sequence (P35414 whole entry): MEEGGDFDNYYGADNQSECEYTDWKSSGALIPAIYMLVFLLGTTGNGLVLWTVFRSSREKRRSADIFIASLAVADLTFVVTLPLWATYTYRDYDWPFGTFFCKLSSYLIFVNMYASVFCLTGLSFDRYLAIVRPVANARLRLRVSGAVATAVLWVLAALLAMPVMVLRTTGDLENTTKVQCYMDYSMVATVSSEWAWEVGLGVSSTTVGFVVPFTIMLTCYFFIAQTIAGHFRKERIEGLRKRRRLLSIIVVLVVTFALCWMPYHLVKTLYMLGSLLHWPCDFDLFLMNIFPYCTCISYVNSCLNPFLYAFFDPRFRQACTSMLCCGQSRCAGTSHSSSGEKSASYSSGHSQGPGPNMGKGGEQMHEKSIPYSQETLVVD

Apelin receptor [2] = biological target: T2, Apelin receptor (Rattus norvegicus, UniProt Q9JHG3); test: Agonist activity at rat APJ receptor expressed in HEK293T cells assessed as compound stimulated inhibition of forskolin stimulated cAMP production incubated for 30 mins by HTRF assay; assay type: functional, cell-based
T2 sequence (Q9JHG3 whole entry): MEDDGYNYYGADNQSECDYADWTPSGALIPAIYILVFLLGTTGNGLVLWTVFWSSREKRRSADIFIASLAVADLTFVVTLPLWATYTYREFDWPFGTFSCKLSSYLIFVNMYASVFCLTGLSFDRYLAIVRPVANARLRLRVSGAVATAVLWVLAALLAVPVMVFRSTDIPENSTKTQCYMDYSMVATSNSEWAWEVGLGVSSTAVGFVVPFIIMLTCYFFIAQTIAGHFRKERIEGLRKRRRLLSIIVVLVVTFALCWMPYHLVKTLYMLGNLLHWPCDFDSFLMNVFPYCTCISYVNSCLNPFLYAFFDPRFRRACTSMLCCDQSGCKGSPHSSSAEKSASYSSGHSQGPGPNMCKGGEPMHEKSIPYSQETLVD

[3] = Metabolic stability in human liver microsomes assessed as parent compound remaining measured after 10 mins in presence of NADPH; assay type: ADME, Microsome; settings: for remaining at 10 min: liver microsomes, read-out: Stabilty; for percent parent compound remaining: microsomes, 10 min
[4] = Permeability of the compound at pH 7.4 by PAMPA assay; assay type: ADME; settings: for Papp: read-out: permeability
[5] = Permeability of the compound at pH 5.5 by PAMPA assay; assay type: ADME; settings: for Papp: read-out: permeability
[6] = Metabolic stability in rat liver microsomes assessed as parent compound remaining measured after 10 mins in presence of NADPH; assay type: ADME, Microsome; settings: for remaining at 10 min: liver microsomes, read-out: Stabilty; for Stabilty: microsomes, 10 min
Rattus norvegicus [7] = test: Hemodynamic activity in isoflurane-anesthetized Sprague-Dawley rat model of acute pressure-volume loop assessed as change in cardiac output at 10 microg/kg/min administered as iv infusion for 15 mins (reference value: 2.3 +/- 2.1 %); assay type: functional; settings: dose 10 µg/kg/min, 0.25 h
Rattus norvegicus [8] = test: Hemodynamic activity in isoflurane-anesthetized Sprague-Dawley rat model of acute pressure-volume loop assessed as change in heart rate at 10 microg/kg/min administered as iv infusion for 15 mins (reference value: 3 +/- 1.6 %); assay type: functional; settings: dose 10 µg/kg/min, 0.25 h
[9] = Half life in Sprague-Dawley rat at 1 mg/kg, po via gavage measured after 48 hrs by LC/MS/MS analysis; assay type: ADME, organism-based; settings: in vivo
[10] = Free drug concentration in Sprague-Dawley rat plasma; assay type: ADME, cell-free
Rattus norvegicus [11] = test: Hemodynamic activity in isoflurane-anesthetized Sprague-Dawley rat model of acute pressure-volume loop assessed as change in stroke volume at 10 microg/kg/min administered as iv infusion for 15 mins (reference value: -0.6 %); assay type: functional; settings: dose 10 µg/kg/min, 0.25 h
[12] = Protein binding in Sprague-Dawley rat plasma; assay type: ADME, cell-free; settings: read-out: PPB (converted)
Rattus norvegicus [13] = test: Hemodynamic activity in isoflurane-anesthetized Sprague-Dawley rat model of acute pressure-volume loop assessed as change in dp/dT at 10 microg/kg/min administered as iv infusion for 15 mins (reference value: 3.3 +/- […]); assay type: functional; settings: dose 10 µg/kg/min, 0.25 h
Rattus norvegicus [14] = test: Hemodynamic activity in isoflurane-anesthetized Sprague-Dawley rat model of acute pressure-volume loop assessed as change in blood pressure at 10 microg/kg/min administered as iv infusion for 15 mins (reference value: -0.2 %); assay type: functional; settings: dose 10 µg/kg/min, 0.25 h
[15] = AUC(0 to 24 hrs) in Sprague-Dawley rat at 1 mg/kg, po via gavage measured after 48 hrs by LC/MS/MS analysis; assay type: ADME, organism-based; design: route oral, dose 1 mg/kg, time 48 hrs; settings: in vivo
[16] = Cmax in Sprague-Dawley rat at 1 mg/kg, po via gavage measured after 48 hrs by LC/MS/MS analysis; assay type: ADME, organism-based; design: route oral, time 48 hrs, dose 1 mg/kg; settings: in vivo

| SMILES | EC50 (Apelin receptor [1]) | EC50 (Apelin receptor [2]) | remaining at 10 min [3] | Papp [4] | Papp [5] | remaining at 10 min [6] | other results |
| --- | --- | --- | --- | --- | --- | --- | --- |
| CCCCc1[nH]c(=O)c(C(=O)N(CCC)Cc2ccccc2)c(O)c1-c1c(OC)cccc1OC | 120 nM | 150 nM | – | – | – | – | – |
| CCCCc1[nH]c(=O)c(C(=O)NCc2ccccc2)c(O)c1-c1c(OC)cccc1OC | 1100 nM | 4800 nM | – | – | – | – | – |
| CCCCc1[nH]c(=O)c(C(=O)N2CC[C@H](c3ccccc3)C2)c(O)c1-c1c(OC)cccc1OC | 1 nM | 1.8 nM | 99% | 1.8 ×10⁻⁶ cm/s | 84 ×10⁻⁶ cm/s | 73% | – |
| CCCCc1nc(=O)c(C(=O)N2CC[C@@H](c3ccc(Cl)cn3)C2)c(O)n1-c1c(OC)cccc1OC | 0.027 nM | 0.035 nM | 100% | – | – | 43% | Activity (Rattus norvegicus [7]): 11.7%; Activity (Rattus norvegicus [8]): 4.6%; half-life [9]: 3.2 h; Cp(f) [10]: 0.0064 µM; Activity (Rattus norvegicus [11]): 67%; fraction unbound [12]: 0.022; Activity (Rattus norvegicus [13]): 9.1%; Activity (Rattus norvegicus [14]): -2.8%; AUC(0-t) at 48 h [15]: 1.9 µM·h; Cmax [16]: 3.2 µM |
| CCCCc1[nH]c(=O)c(C(=O)N(C)C)c(O)c1-c1c(OC)cccc1OC | 1100 nM | 1200 nM | – | – | – | – | – |
| CCCCc1nc(=O)c(C(=O)N2CC[C@H](c3ccccc3)C2)c(O)n1-c1c(OC)cccc1OC | – | 0.27 nM | 85% | 1.2 ×10⁻⁶ cm/s | 52.3 ×10⁻⁶ cm/s | 25% | – |
| CCCCc1[nH]c(=O)c(C(=O)N(C)CCc2ccc(Cl)cc2)c(O)c1-c1c(OC)cccc1OC | 9.3 nM | 10 nM | – | – | – | – | – |
| CCOCc1[nH]c(=O)c(-c2nnc(Cc3ccc(C)cn3)o2)c(O)c1-c1c(OC)cccc1OC | 0.023 nM | 0.024 nM | – | – | – | – | – |
| CCCCc1[nH]c(=O)c(C(=O)NCC)c(O)c1-c1c(OC)cccc1OC | > 30000 nM | > 30000 nM | – | – | – | – | – |
| CCCCc1nc(=O)c(C(=O)N2CC[C@H](c3ccc(Cl)cn3)C2)c(O)n1-c1c(OC)cccc1OC | 0.032 nM | 0.063 nM | 100% | – | – | 35% | – |
| CCCCc1[nH]c(=O)c(C(=O)N2CC[C@@H](c3ccccc3)C2)c(O)c1-c1c(OC)cccc1OC | 1.8 nM | 3.1 nM | 100% | 7.3 ×10⁻⁶ cm/s | 63 ×10⁻⁶ cm/s | 69% | – |
| CCOCc1nc(=O)c(C(=O)N2CC[C@H](c3ccccc3)C2)c(O)n1-c1c(OC)cccc1OC | 0.44 nM | 0.61 nM | – | 0.3 ×10⁻⁶ cm/s | 6.4 ×10⁻⁶ cm/s | – | – |
| CCCCc1nc(=O)c(C(=O)N2CC[C@@H](c3ccccc3)C2)c(O)n1-c1c(OC)cccc1OC | – | 0.34 nM | 97% | 2.3 ×10⁻⁶ cm/s | 32.5 ×10⁻⁶ cm/s | 26% | – |
| CCCCc1nc(=O)c(C(=O)N2CCC(c3ccc(Cl)cc3)C2)c(O)n1-c1c(OC)cccc1OC (stereo in doubt; 10a) | 0.15 nM | 0.17 nM | 97% | 7.4 ×10⁻⁶ cm/s | 30 ×10⁻⁶ cm/s | 7% | – |
| CCCCc1nc(=O)c(C(=O)N2CCC(c3ccc(Cl)cc3)C2)c(O)n1-c1c(OC)cccc1OC (stereo in doubt; 10b) | 0.24 nM | 0.31 nM | – | – | – | – | percent parent compound remaining [3]: 90%; permeability [4]: 6.3 ×10⁻⁶ cm/s; permeability [5]: 38 ×10⁻⁶ cm/s; Stabilty [6]: 8% |
| CCCCc1nc(=O)c(C(=O)N2CCC(c3ccccn3)C2)c(O)n1-c1c(OC)cccc1OC (stereo in doubt; 11a) | 0.17 nM | 0.37 nM | 82% | – | 4.2 ×10⁻⁶ cm/s | 68% | – |
| CCCCc1nc(=O)c(C(=O)N2CCC(c3ccccn3)C2)c(O)n1-c1c(OC)cccc1OC (stereo in doubt; 11b) | 0.12 nM | 0.15 nM | – | 0.6 ×10⁻⁶ cm/s | – | – | permeability [5]: 7.8 ×10⁻⁶ cm/s; Stabilty [6]: 62% |
| CCCCc1nc(=O)c(C(=O)N2CCC(c3cccnc3)C2)c(O)n1-c1c(OC)cccc1OC (stereo in doubt; 12a) | 0.29 nM | 0.33 nM | 82% | – | 2.3 ×10⁻⁶ cm/s | 65% | – |
| CCCCc1nc(=O)c(C(=O)N2CCC(c3cccnc3)C2)c(O)n1-c1c(OC)cccc1OC (stereo in doubt; 12b) | 0.3 nM | 0.4 nM | – | 0.1 ×10⁻⁶ cm/s | – | – | percent parent compound remaining [3]: 89%; permeability [5]: 2.1 ×10⁻⁶ cm/s; Stabilty [6]: 70% |
| CCCCc1nc(=O)c(C(=O)N2CCC(c3ccncc3)C2)c(O)n1-c1c(OC)cccc1OC (stereo in doubt; 13a) | 1.5 nM | 2.1 nM | 93% | 0.3 ×10⁻⁶ cm/s | – | 83% | permeability [5]: 0.9 ×10⁻⁶ cm/s |
| CCCCc1nc(=O)c(C(=O)N2CCC(c3ccncc3)C2)c(O)n1-c1c(OC)cccc1OC (stereo in doubt; 13b) | 2.7 nM | 4 nM | – | – | – | – | percent parent compound remaining [3]: 90%; permeability [4]: 0.5 ×10⁻⁶ cm/s; permeability [5]: 1.9 ×10⁻⁶ cm/s; Stabilty [6]: 80% |
